Assay results from the supplement of paper PMC4862054.

Legend:
Settings in all cases: incubation time: 72 h
[1] = system: HCC1937; assay: drug sensitivity score (DSS), CellTiter-Blue viability (DSS (AUC-based score)); higher = stronger viability inhibition; extreme values may be limits of the assay
Experimental: (§1)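 DSRT with the CellTiter-Blue (resazurin reduction) viability readout, fluorescence 560/590 nm, 72 h incubation. Plates were normalised to DMSO and benzethonium chloride controls. DSS is computed from the area under the fitted dose-response curve (5 or 9 concentrations).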

[2] = system: MDA-MB-231; assay: as above
Experimental: as §1

[3] = system: MDA-MB-468; assay: as above
Experimental: as §1

[4] = system: BT-474; assay: as above
Experimental: as §1

[5] = system: MFM-223; assay: as above
Experimental: as §1

[6] = system: MDA-MB-436; assay: as above
Experimental: as §1

[7] = system: HCC1143; assay: as above
Experimental: as §1

[8] = system: HCC1599; assay: as above
Experimental: as §1

[9] = system: CAL-85-1; assay: as above
Experimental: as §1

[10] = system: CAL-120; assay: as above
Experimental: as §1

[11] = system: BT-549; assay: as above
Experimental: as §1

[12] = system: MDA-MB-453; assay: as above
Experimental: as §1

[13] = system: HDQ-P1; assay: as above
Experimental: as §1

[14] = system: CAL-51; assay: as above
Experimental: as §1

[15] = system: SK-BR-3; assay: as above
Experimental: as §1

[16] = system: CAL-148; assay: as above
Experimental: as §1

[17] = system: DU-4475; assay: as above
Experimental: as §1

[18] = system: Hs578T; assay: as above
Experimental: as §1

[19] = system: MFM-223; assay: normalised viability (% of control), CellTiter-Blue; higher = more viable cells (about 100 = DMSO control)
How it was run: (§2)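 Seeded at 20 µl suspension per well onto compound-loaded 384-well plates, breast cancer cell lines were incubated 72 h. CellTiter-Blue fluorescence at 560/590 nm was then read, with each plate normalised to vehicle (100) and a positive kill control (0). Normalised viability is reported at a single listed concentration of the series.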

[20] = system: MDA-MB-436; assay: as above
How it was run: as §2

[21] = system: HCC1599; assay: as above
How it was run: as §2

[22] = system: CAL-120; assay: as above
How it was run: as §2

[23] = system: MDA-MB-453; assay: as above
How it was run: as §2

[24] = system: CAL-51; assay: as above
How it was run: as §2

[25] = system: Hs578T; assay: as above
How it was run: as §2

Compound	drug sensitivity score [1]	drug sensitivity score [2]	drug sensitivity score [3]	drug sensitivity score [4]	drug sensitivity score [5]	drug sensitivity score [6]	drug sensitivity score [7]	drug sensitivity score [8]	drug sensitivity score [9]	drug sensitivity score [10]	drug sensitivity score [11]	drug sensitivity score [12]	drug sensitivity score [13]	drug sensitivity score [14]	drug sensitivity score [15]	drug sensitivity score [16]	drug sensitivity score [17]	drug sensitivity score [18]	normalised viability ([19]; 10 nM) [%]	normalised viability ([19]; 1000 nM) [%]	normalised viability ([19]; 10000 nM) [%]	normalised viability ([20]; 10 nM) [%]	normalised viability ([20]; 1000 nM) [%]	normalised viability ([20]; 10000 nM) [%]	normalised viability ([21]; 10 nM) [%]	normalised viability ([21]; 1000 nM) [%]	normalised viability ([21]; 10000 nM) [%]	normalised viability ([22]; 10 nM) [%]	normalised viability ([22]; 1000 nM) [%]	normalised viability ([22]; 10000 nM) [%]	normalised viability ([23]; 3 nM) [%]	normalised viability ([23]; 30 nM) [%]	normalised viability ([23]; 100 nM) [%]	normalised viability ([24]; 3 nM) [%]	normalised viability ([24]; 30 nM) [%]	normalised viability ([24]; 100 nM) [%]	normalised viability ([25]; 10 nM) [%]	normalised viability ([25]; 1000 nM) [%]	normalised viability ([25]; 10000 nM) [%]
CO[C@@H]1[C@H](N(C)C(=O)c2ccccc2)C[C@H]2O[C@]1(C)n1c3ccccc3c3c4c(c5c6ccccc6n2c5c31)C(=O)NC4 [Midostaurin]	10	9.28	9.5	0	4.68	8.07	4.83	3.48	3.45	8.21	9.72	7.82	10.9	19.4	6.46	0	15.8	14.9	96.3	74.4	64.2	94.2	62.7	57.2	106	78.8	72.6	126	55.4	44.9	108	92.1	87.2	97.5	87.9	82.4	129	31	15.6
CC(O)(CS(=O)(=O)c1ccc(F)cc1)C(=O)Nc1ccc(C#N)c(C(F)(F)F)c1 (configuration not stated) [Bicalutamide]	0	0	4.86e-06	0	0	0	0	0	0	0	0	0	0	0	0	0	0	0	89.2	91.8	94	90	96.2	96.7	98.3	93.6	109	96	107	119	114	89.2	95.9	116	109	99.1	108	112	113
COc1ccc(S(=O)(=O)Nc2cccnc2Nc2ccc(O)cc2)cc1 [ABT-751]	14.9	14.3	8.8	7	8.15	10.4	9.7	5.55	13.7	14.5	6.81	17.9	12	11.8	18.5	10.7	10.1	17.3	94.7	62.6	25.4	86	48.3	21.4	112	85.6	40.4	81.7	26.8	21.6	105	81.8	67.9	114	107	107	98.9	16.6	14.4
